One assay concerns CaOV3 cells. Nature of the assay: Confocal microscopy of C6-NBD ceramide entry into ovarian cancer cells. In kind it is cell-based, human. The following applies: for effect on C6 ceramide entry into the cells: CaOV3 cells pretreated with inhibitor, C6-NBD-ceramide; for effect on polarized entry of C6 ceramide: CaOV3 cells pretreated 1 h, then C6-NBD. On the procedure:
(A and C) CaOV3 cells were cultured in 8-well chamber slides and treated with C6-NBD ceramide (6 μg/ml). (B) The cells were fixed with formaldehyde at various times following treatment or were treated with the indicated doses of C6-NBD-ceramide, with or without fixation. The cells were processed and observed under a confocal microscope.
CaOV3 cells were cultured in 8-well chamber slides and treated with or without (A) a lipid raft/caveolae inhibitor or with (B) water channel inhibitors, CuSO4 or NiCl2. The cells were fixed with formaldehyde, processed and observed under a confocal microscope.
(A) CaOV3 cells were cultured in 8-well chamber slides, pretreated with taxol or doxorubicin for 1 h and then treated with C6-NBD-ceramide for 5 or 15 min. The cells were fixed with formaldehyde and processed for confocal microscopy. (B) The cells were pretreated with taxol and then C6-NBD-ceramide and processed for confocal microscopy without fixation.
The cells were plated in eight-well chamber slides (Lab-Tek; Nalge Nunc International, Naperville, Ill., USA) and treated with various reagents, including C6-NBD ceramide, taxol and CuSO4. Next, the cells were either left untreated or were fixed for 20 min in fresh 4% paraformaldehyde-PBS. The cell nuclei were also stained with Hoechst (1 μg/ml in PBS) for 10 min. The slides were mounted with anti-fade (Life Technologies, Grand Island, N.Y., USA) and stored in the dark until viewing. The samples were observed under a confocal microscope and images were captured by Zen 2009 Light Edition (Carl Zeiss AG, Oberkochen, Germany).

The subject of assay [1] is L3.6 pancreatic cancer cells. Nature of the assay: MTT cell viability assay, C6-Ceramide / chemo agents / pathway inhibitors. The following applies: 48 h; for L3.6 cell viability, agent alone: LY 294002 1 μM, rapamycin 100 nM, U0126 1 μg/ml, Gemcitabine 1 μg/ml; for cell death: MTT. In kind it is cell-based, human. On the procedure:
L3.6 pancreatic cancer cells, cultured either in basic DMEM medium or with 10% FBS, were treated with indicated doses of Taxol in the presence or absence of C6 Ceramide (10 μg/ml) for 48 hours, cell viability was detected by MTT assay (FIGS. 4A and B). L3.6 cells, cultured either in basic DMEM medium or with 10% FBS, were treated with indicated dose of C6 Ceramide in the presence or absence of Taxol (1.5 μg/ml) for 48 hours, cell viability was detected by MTT assay as described (FIGS. 4C and D). Mitomycin C (10 μg/ml) was always present in the media to prevent cell proliferation from occurring. The data represent the mean±SD of at least triplicate experiments. *P<0.05 versus group without C6 Ceramide presents (FIGS. 4A and B). **P<0.05 versus group without Taxol presents (C and D).
(§1) Mitomycin C (10 ug/ml) was always present in the media to prevent cell proliferation from occurring.
FIG. 9 depicts data showing the effect of survival pathway inhibitors on cytotoxicity of Taxol and Gemcitabine in L3.6 pancreatic tumor cells. L3.6 cells were pretreated with various inhibitors including PI3K/AKT inhibitor LY 294002 (LY, 1 μM), mTORC1 inhibitor rapamycin (100 nM), MEK/ERK inhibitor U0126 (1 μg/ml), alone or in the presence of Taxol (1.5 μg/ml) or Gemcitabine (1 μg/ml) for 48 hours, with cell death detected 48 hours later (FIG. 9, left). Effects of various inhibitors as mentioned above on AKT/mTORC1 and ERK activation were also examined by Western blots using commercially available antibodies (FIG. 9, right). *P<0.05 versus group without C6 Ceramide presents. […] In FIG. 9, left panel, the DMSO=left bar; LY294002=second left bar; U0126=middle bar; Rapamycin=second right bar; and LY+U0126=right bar.
(§2) Cell viability was measured by the 3-(4,5-dimethylthiazol-2-yl)-2,5-diphenyltetrazolium bromide (MTT) method, as described previously (Cao, C., et al. Sci Signal, 2: ra17, 2009; and Vanhaesebroeck, B., et al. Annu Rev Biochem, 70: 535-602, 2001). Briefly, the cells were collected and seeded in 96-well plate at a density of 2×10^5 cells/cm^2. Different seeding densities were optimized at the beginning of the experiments. After overnight incubation cells were exposed to fresh medium containing indicated reagents at 37° C. After incubation for different time periods, 20 μl of MTT tetrazolium (Sigma, St. Louis, Mo.) salt dissolved in Hank's balanced salt solution at a concentration of 5 mg/ml was added to each well and incubated in a CO2 incubator for an additional 4 hours. The medium was subsequently aspirated from each well and 150 μl of DMSO (Sigma, St. Louis, Mo.) was added to dissolve formazan crystals and the absorbance of each well was obtained using a Dynatech MR5000 plate reader at a test wavelength of 490 nm with a reference wavelength of 630 nm.

Another assay deals with MIA-PaCa2 (MIA) cells. Nature of the assay: MTT cell viability assay, C6-Ceramide with chemo agents. In kind it is cell-based, human. Conditions: MIA cells (FIG. 6C), basic DMEM; Gemcitabine 3 μg/ml, Taxol 15 ug/ml, C6-Ceramide 10 ug/ml, Cetuximab 10 ug/ml. On the procedure:
as §1, §2
On the technique in general: Tetrazolium dyes change colour on reduction, which living cells bring about.

The test system of another assay is Panc-1. The description is as above. In kind it is cell-based, human. Conditions: Panc-1 (FIG. 6B), basic DMEM; Gemcitabine 3 μg/ml, Taxol 15 ug/ml, C6-Ceramide 10 ug/ml, Cetuximab 10 ug/ml. The method, then: as §1, §2
The test system of a further assay is L3.6 pancreatic cells. In kind it is in vivo. The following applies: for tumor volume and mouse survival: Taxol 3 mg/kg, C6-Ceramide 10 mg/kg, I.P. 3x/wk, vs control treatment group. On the procedure: SCID/Beige/Taconic nude male mice, 22-25 g, 6-8 weeks old were ear tagged and randomized into 4 different groups (Control, Ceramide, Paclitaxel, Ceramide+Paclitaxel) of 5 mice each prior to inoculation s.c. with 2×10^6 L3.6 cells in a volume 0.1 ml into the internal surface of the right thigh. Treatment was started 4 days after L3.6 cell injection with thrice weekly (3×/wk) intraperitoneal (I.P.) injections of Paclitaxel 3.0 mg/kg with or without C6-Ceramide (10 mg/kg) for 2 weeks. Mice survival (A and C), tumor volume (in cm^3) (B), mice body weight (in grams) were recorded (E). Average rate of tumor development was calculated by total tumor volume dividing by total number of days monitored (D).
FIG. 7A and FIG. 7D: SCID/Beige/Taconic nude male mice, 22-25 g, 6-8 weeks old were ear tagged and randomized into 4 different groups (Control, Ceramide, Gemcitabine, Ceramide+Gemcitabine) combining 5 mice each prior to inoculation s.c. with 2×10^6 L3.6 cells in a volume 0.1 ml into the internal surface of the right thigh. Treatment was started 4 days after L3.6 cell injection with thrice weekly (3×/wk) intraperitoneal (I.P.) injections of Gemcitabine (two doses: […]) with or without C6-Ceramide ([…]) for 2 weeks. […] Mice survival (A, B and E) and tumor volume (in cm^3) (C and D) were recorded (E). In (E), the left bar indicates treatment without C6, and the right bar indicates treatment with C6.
SCID/Beige/Taconic male mice were inoculated with 2×10^6 L3.6 pancreatic cells and begun treatment 4 days post tumor implant with thrice weekly (3×/wk) intraperitoneal (I.P.) injections of Paclitaxel (Taxol) 3.0 mg/kg or Gemcitabine (Gem) 10 mg/kg—after treatment and were autopsied when near death (as per IRB committee). Mouse survival, tumor volume (in cm^3), and body weight (in grams) were recorded. Average rate of tumor development was calculated by dividing total tumor volume by total number of days monitored.

The next assay deals with AKT/mTORC1 and ERK. Nature of the assay: Western blot of AKT/mTORC1 and ERK activation in L3.6 cells. In kind it is cell-based, human. The following applies: 2-6 h, Gemcitabine 1 μg/ml, Taxol 1.5 μg/ml, C6 Ceramide 10 μg/ml. An excerpt: Antibody binding was detected with the enhanced chemiluminescence (ECL) detection system (Amersham Biosciences, Piscataway, N.J.).
(Immunoblotting shows a protein as a band on a membrane.)

Assay [2] deals with L3.6 pancreatic cancer cells. Nature of the assay: MTT cell viability assay, C6-Ceramide / chemo agents / pathway inhibitors. In kind it is cell-based, human. Conditions: L3.6 (FIG. 6A), basic DMEM; Gemcitabine 3 μg/ml, Taxol 15 ug/ml, C6-Ceramide 10 ug/ml, Cetuximab 10 ug/ml.
Where [3] appears, read: L3.6, basic DMEM medium, Taxol 1.5 ug/ml, C6-ceramide 10 ug/ml.
The mark [4] stands for this setting: L3.6 cultured in 10% FBS, C6-Ceramide 2.5 μg/ml, Taxol 1.5 μg/ml.

The values that follow come from patent US9968570B2, “Compositions and methods for treating cancer” (Chemo-Enhanced LLC, priority 2013, dated 2018).

`[Cl][Ni][Cl]` [NiCl2]: the “effect on C6 ceramide entry into the cells” value in the assay with CaOV3 cells is given as “does not”.

As to `CCCCC[C@@H](O)[C@H]1C(=O)O[C@H](C)[C@@H](O)/C=C/C=C/C=C/C=C/C=C(\C)[C@@H](O)C[C@H](O)C[C@H](O)C[C@H](O)C[C@H](O)C[C@H](O)C[C@@H]1O` [Filipin], in the assay with CaOV3 cells, the “effect on C6 ceramide entry into the cells” value is listed as “inhibited the C6 ceramide entry into the CaOV3 cells”.

Regarding `O=S(=O)([O-])[O-].[Cu+2]` [CuSO4], the “effect on C6 ceramide entry into the cells” value with CaOV3 cells is “inhibits C6 ceramide entry into the cells”.

Take `Nc1ccn([C@@H]2O[C@H](CO)[C@@H](O)C2(F)F)c(=O)n1` [Gemcitabine, gemcitabine]: the “L3.6 cell viability, agent alone” value in assay [1] (Taxol 1.5 μg/ml) is on record as “little or no significant effect”. Besides, the cell death result is on record as “None of Gemcitabine (3 μg/ml), Taxol (15 ug/ml) or C6-Ceramide (10 ug/ml) alone had a significant effect” with MIA-PaCa2 (MIA) cells; “None of Gemcitabine (3 μg/ml), Taxol (15 ug/ml) or C6-Ceramide (10 ug/ml) alone had a significant effect” with Panc-1; “None of Gemcitabine (3 μg/ml), Taxol (15 ug/ml) or C6-Ceramide (10 ug/ml) alone had a significant effect” in assay [2]. Moreover, the “survival and tumor growth” value in the assay on L3.6 pancreatic cells (Gemcitabine 5 mg/kg and 10 mg/kg, C6-ceramide 10 mg/kg, I.P. 3x/wk for 2 weeks) is “limited effect on survival and tumor growth”. Further, the “AKT/mTORC1 and ERK activation” value in the assay with AKT/mTORC1 and ERK is “no effect”.

For `COc1cccc2c1C(=O)c1c(O)c3c(c(O)c1C2=O)C[C@@](O)(C(=O)CO)C[C@@H]3O[C@H]1C[C@H](N)[C@H](O)[C@H](C)O1` [doxorubicin], the “effect on polarized entry of C6 ceramide” value in the assay on CaOV3 cells was “had no such effect”.

Regarding `CCCCCCCCCCCCC/C=C/[C@@H](O)[C@H](CO)NC(=O)CCCCC` [Fraction C6-ceramide, N-hexanoyl-D-sphingosine], the cell death result is “no effect” in assay [1] (setting [3]); “neither of these two alone had any measurable effect” in assay [1] (setting [4]); “None of Gemcitabine (3 μg/ml), Taxol (15 ug/ml) or C6-Ceramide (10 ug/ml) alone had a significant effect” with MIA-PaCa2 (MIA) cells; “None of Gemcitabine (3 μg/ml), Taxol (15 ug/ml) or C6-Ceramide (10 ug/ml) alone had a significant effect” in the assay with Panc-1; “None of Gemcitabine (3 μg/ml), Taxol (15 ug/ml) or C6-Ceramide (10 ug/ml) alone had a significant effect” in assay [2]. Also, the “tumor volume and mouse survival” value with L3.6 pancreatic cells was “minimal effects on tumor volume and mouse survival”. In the assay on AKT/mTORC1 and ERK, the “AKT/mTORC1 and ERK activation” value is listed as “moderate inhibition”.

Take `N#CC(=C(N)Sc1ccccc1N)C(C#N)=C(N)Sc1ccccc1N` [Fraction U0126, 1,4-diamino-2,3-dicyano-1,4-bis[2-aminophenylthio]butadiene]: in assay [1] (Taxol 1.5 μg/ml), the “L3.6 cell viability, agent alone” value is reported as “little or no significant effect”.

For the molecule `CC(=O)O[C@H]1C(=O)[C@@]2(C)[C@H]([C@H](OC(=O)c3ccccc3)[C@]3(O)C[C@H](OC(=O)[C@H](O)[C@@H](NC(=O)c4ccccc4)c4ccccc4)C(C)=C1C3(C)C)[C@]1(OC(C)=O)CO[C@@H]1C[C@@H]2O` [Taxol, paclitaxel], the “L3.6 cell viability, agent alone” value in assay [1] (Taxol 1.5 μg/ml) was “little or no significant effect”. The cell death in assay [1] (setting [3]) was 30%; in assay [1] (setting [4]) it was “neither of these two alone had any measurable effect”; in the assay on MIA-PaCa2 (MIA) cells, “None of Gemcitabine (3 μg/ml), Taxol (15 ug/ml) or C6-Ceramide (10 ug/ml) alone had a significant effect”; in the assay with Panc-1, “None of Gemcitabine (3 μg/ml), Taxol (15 ug/ml) or C6-Ceramide (10 ug/ml) alone had a significant effect”; in assay [2], “None of Gemcitabine (3 μg/ml), Taxol (15 ug/ml) or C6-Ceramide (10 ug/ml) alone had a significant effect”. In addition, the “tumor volume and mouse survival” value in the assay on L3.6 pancreatic cells was “minimal effects on tumor volume and mouse survival”. In addition, the “effect on polarized entry of C6 ceramide” value with CaOV3 cells was “disrupted the polarized pattern of C6 entry”.
